Consider 20 compounds from patent US20230242530A1, “8-(AZETIDIN-1-YL)-[1,2,4]TRIAZOLO[1,5-A]PYRIDINYL COMPOUNDS, COMPOSITIONS AND METHODS OF USE THEREOF” (Genentech, Inc., priority 2016, published 2023).

The target in test [1] is T1, isolated recombinant JAK1 kinase domain (Homo sapiens, UniProt P23458).
T1 construct: isolated recombinant JAK1 and JAK2 kinase domain
In words: JAK enzyme assay, JAK1 kinase domain (Caliper LabChip). Format: biochemical. To be noted: 1.5 nM JAK1, ATP 25 μM, Morrison tight binding model. The procedure, abridged: (§1)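 Recombinant kinase domains phosphorylated a 5-carboxyfluorescein-labelled JAK3-derived peptide for 30 min at 22 °C, and the reaction was stopped with EDTA (50 mM final). Product fraction was measured by Caliper LabChip mobility shift. Ki came from Morrison tight-binding fits corrected for ATP competition (Ki=Ki,app/(1+[ATP]/Km,app)).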

The target of test [2] is T2, isolated recombinant JAK2 kinase domain (Homo sapiens, UniProt O60674).
T2 construct: isolated recombinant JAK1 and JAK2 kinase domain
Briefly: JAK enzyme assay, JAK2 kinase domain (Caliper LabChip). Type of test: biochemical. To be noted: 0.2 nM JAK2, ATP 25 μM, Morrison tight binding model. The procedure, abridged:
as §1

Test [3] concerns JAK1-dependent STAT6 phosphorylation downstream of IL-13 stimulation in BEAS-2B cells. In words: JAK1 pathway assay in cell lines: IL-13 p-STAT6 BEAS-2B. Format: cell-based. To be noted: BEAS-2B human bronchial epithelial cells, 1 hr compound, IL-13 15 min, MSD readout. The method, boiled down:
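BEAS-2B cells plated a day ahead in complete growth medium; compounds added 1 hr at 37 °C (0.2% DMSO final), then IL-13 at lot-specific EC90 for 15 min at 37 °C. Phospho-STAT6 in lysates measured by MSD; EC50 is 50% inhibition relative to DMSO control.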

T2 sequence (O60674 849-1124 limits assumed): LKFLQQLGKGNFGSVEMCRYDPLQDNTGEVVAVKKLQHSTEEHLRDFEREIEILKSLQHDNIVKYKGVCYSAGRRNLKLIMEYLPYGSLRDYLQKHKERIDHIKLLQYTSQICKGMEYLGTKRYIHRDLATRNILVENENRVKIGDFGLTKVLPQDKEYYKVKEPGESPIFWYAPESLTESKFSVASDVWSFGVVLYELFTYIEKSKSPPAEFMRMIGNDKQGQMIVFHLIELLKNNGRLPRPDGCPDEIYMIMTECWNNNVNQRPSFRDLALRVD
T1 sequence (P23458 875-1153 limits assumed): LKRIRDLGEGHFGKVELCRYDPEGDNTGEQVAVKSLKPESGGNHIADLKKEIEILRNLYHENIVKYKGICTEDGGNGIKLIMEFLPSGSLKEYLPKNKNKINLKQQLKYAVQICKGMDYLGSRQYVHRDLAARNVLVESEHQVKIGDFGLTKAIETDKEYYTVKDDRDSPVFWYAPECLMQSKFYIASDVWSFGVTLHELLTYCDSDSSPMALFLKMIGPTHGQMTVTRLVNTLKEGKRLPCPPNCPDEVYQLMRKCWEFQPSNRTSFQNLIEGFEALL

For the compound `CN1CCN(C(=O)Cn2cc(Nc3nc4c(N5CC(CC#N)(n6cc(C7CC7)cn6)C5)cccn4n3)cn2)CC1` [Example 43, 2-[3-(4-cyclopropylpyrazol-1-yl)-1-[2-[[1-[2-(4-methylpiperazin-1-yl)-2-oxo-ethyl]pyrazol-4-yl]amino]-[1,2,4]triazolo[1,5-a]pyridin-8-yl]azetidin-3-yl]acetonitrile], the Ki in test [1] was 0.6 nM; in test [2], 4 nM. Moreover, a half-maximal effect in test [3] (EC50) was put at 48 nM.

Turning to `Cn1cc(Nc2nc3c(N4CC(CC#N)(n5cc(Br)cn5)C4)cccn3n2)cn1` [Example 132, 2-[3-(4-bromopyrazol-1-yl)-1-[2-[(l-methylpyrazol-4-yl)amino]-[1,2,4]triazolo[1,5-a]pyridin-8-yl]azetidin-3-yl]acetonitrile], the Ki in test [1] is 0.3 nM; in test [2], 0.5 nM. This compound came in with an EC50 in test [3] of 51 nM.

In the case of `Cc1nn(C2(CC#N)CN(c3cccn4nc(Nc5cnn(CC(=O)N6CCN(C)CC6)c5)nc34)C2)cc1-c1ccccc1` [Example 114, formic acid;2-[3-(3-methyl-4-phenyl-pyrazol-1-yl)-1-[2-[[1-[2-(4-methylpiperazin-1-yl)-2-oxo-ethyl]pyrazol-4-yl]amino]-[1,2,4]triazolo[1,5-a]pyridin-8-yl]azetidin-3-yl]acetonitrile], the Ki in test [1] and in test [2] was 0.3 nM in each case. In addition, the EC50 in test [3] stood at 16 nM.

With `CN1CCN(C(=O)Cn2cc(Nc3nc4c(N5CC(CC#N)(c6ccc(Cl)c(F)c6)C5)cccn4n3)cn2)CC1` [Example 23, 2-[3-(4-chloro-3-fluoro-phenyl)-1-[2-[[1-[2-(4-methylpiperazin-1-yl)-2-oxo-ethyl]pyrazol-4-yl]amino]-[1,2,4]triazolo[1,5-a]pyridin-8-yl]azetidin-3-yl]acetonitrile], the Ki in test [1] is 0.7 nM; in test [2], 6.1 nM. The compound also yielded a concentration giving a half-maximal response (EC50) in test [3] of 40 nM.

As for `CCc1cnn(C2(CC#N)CN(c3cccn4nc(Nc5cnn(CC(=O)N6CCC(NCC7(C#N)CC7)CC6)c5)nc34)C2)c1` [Example 4, 1-[[(1-[2-[4-([8-[3-(cyanomethyl)-3-(4-ethyl-1H-pyrazol-1-yl)azetidin-1-yl]-[1,2,4]triazolo[1,5-a]pyridin-2-yl]amino)-1H-pyrazol-1-yl]acetyl]piperidin-4-yl)amino]methyl]cyclopropane-1-carbonitrile], the figures for the Ki in test [1] and in test [2] were 0.6 nM and 4.6 nM, respectively. Moreover, in test [3], the EC50 came to 39 nM.

Take `CCc1cnn(C2(CC#N)CN(c3cccn4nc(Nc5cnn(CC(=O)N(C)C)c5)nc34)C2)c1` [Example 143, 2-[4-[[8-[3-(cyanomethyl)-3-(4-ethylpyrazol-1-yl)azetidin-1-yl]-[1,2,4]triazolo[1,5-a]pyridin-2-yl]amino]pyrazol-1-yl]-N,N-dimethyl-acetamide]: the Ki in test [1] was 0.6 nM; in test [2], 1.7 nM. The same compound came in with an EC50 in test [3] of 31 nM.

With `CN(CC(C)(C)C#N)C1CCN(C(=O)Cn2cc(Nc3nc4c(N5CC(CC#N)(n6cc(C(F)(F)F)cn6)C5)cccn4n3)cn2)CC1` [Example 108, 3-[[1-[2-[4-[[8-[3-(cyanomethyl)-3-[4-(trifluoromethyl)pyrazol-1-yl]azetidin-1-yl]-[1,2,4]triazolo[1,5-a]pyridin-2-yl]amino]pyrazol-1-yl]acetyl]-4-piperidyl]-methyl-amino]-2,2-dimethyl-propanenitrile;formic acid], the Ki is 0.6 nM in test [1] and 0.4 nM in test [2]. For the same compound, the EC50 in test [3] turned out to be 37 nM.

`N#CCC1(n2cc(SC(F)F)cn2)CN(c2cccn3nc(Nc4cn[nH]c4)nc23)C1` [Example 151, 2-[3-[4-(difluoromethylsulfanyl)pyrazol-1-yl]-1-[2-(1H-pyrazol-4-ylamino)-[1,2,4]triazolo[1,5-a]pyridin-8-yl]azetidin-3-yl]acetonitrile]: the values for the Ki in test [1] and in test [2] were 0.1 nM and 1.4 nM, respectively. In test [3], this compound had a half-maximal effective concentration (EC50) of 42 nM.

Turning to `CSc1cnn(C2(CC#N)CN(c3cccn4nc(Nc5cnn(C)c5)nc34)C2)c1` [Example 147, 2-[1-[2-[(1-methylpyrazol-4-yl)amino]-[1,2,4]triazolo[1,5-a]pyridin-8-yl]-3-(4-methylsulfanylpyrazol-1-yl)azetidin-3-yl]acetonitrile], the Ki in test [1] turned out to be 0.3 nM; in test [2], 0.6 nM. In test [3], this compound yielded an EC50 of 10 nM.

On to `COc1cnn(C2(CC#N)CN(c3cccn4nc(Nc5cnn(C)c5)nc34)C2)c1` [Example 137, 2-[3-(4-methoxypyrazol-1-yl)-1-[2-[(l-methylpyrazol-4-yl)amino]-[1,2,4]triazolo[1,5-a]pyridin-8-yl]azetidin-3-yl]acetonitrile], for which the Ki in test [1] is 0.5 nM; in test [2] it was 2.8 nM. The concentration for a half-maximal effect (EC50) in test [3] came out at 39 nM.

On to `CCc1cnn(C2(CC#N)CN(c3cccn4nc(Nc5ccc(C(=O)NCCCN6CCOCC6)cc5)nc34)C2)c1` [Example 67, 4-[[8-[3-(cyanomethyl)-3-(4-ethylpyrazol-1-yl)azetidin-1-yl]-[1,2,4]triazolo[1,5-a]pyridin-2-yl]amino]-N-(3-morpholinopropyl)benzamide], for which the results for the Ki in test [1] and in test [2] were 0.5 nM and 1.1 nM, respectively. This compound also registered an EC50 in test [3] of 167 nM.

In the case of `Cc1ccccc1-c1cnn(C2(CC#N)CN(c3cccn4nc(Nc5cnn(CC(=O)N6CCC(N7CCOCC7)CC6)c5)nc34)C2)c1` [Example 123], the Ki in test [1] is 0.3 nM; in test [2], 1.3 nM. Moreover, the EC50 in test [3] was found to be 87 nM.

For `Cc1ccccc1-c1cnn(C2(CC#N)CN(c3cccn4nc(Nc5cnn(CC(=O)N6CCC(NCC7(C#N)CC7)CC6)c5)nc34)C2)c1` [Example 118, 1-[[[1-[2-[4-[[8-[3-(cyanomethyl)-3-[4-(o-tolyl)pyrazol-1-yl]azetidin-1-yl]-[1,2,4]triazolo[1,5-a]pyridin-2-yl]amino]pyrazol-1-yl]acetyl]-4-piperidyl]amino]methyl]cycl opropanecarbonitrile], the Ki in test [1] is 1.1 nM; in test [2], 7.3 nM. This compound showed an EC50 in test [3] of 99 nM.

For `CSc1cccc(C2(CC#N)CN(c3cccn4nc(Nc5cnn(CC(=O)N6CCC(N7CCOCC7)CC6)c5)nc34)C2)c1` [Example 90, 2-[3-(3-methylsulfanylphenyl)-1-[2-[[1-[2-(4-morpholino-1-piperidyl)-2-oxo-ethyl]pyrazol-4-yl]amino]-[1,2,4]triazolo[1,5-a]pyridin-8-yl]azetidin-3-yl]acetonitrile], the results for the Ki in test [1] and in test [2] were 0.4 nM and 0.2 nM, respectively. The compound further registered an EC50 in test [3] of 22 nM.

Regarding `CCc1cnn(C2(CC#N)CN(c3cccn4nc(Nc5cnn(CC(=O)N6CCN(C7CCOCC7)CC6)c5)nc34)C2)c1` [Example 31, 2-[3-(4-ethylpyrazol-1-yl)-1-[2-[[1-[2-oxo-2-(4-tetrahydropyran-4-ylpiperazin-1-yl)ethyl]pyrazol-4-yl]amino]-[1,2,4]triazolo[1,5-a]pyridin-8-yl]azetidin-3-yl]acetonitrile], the values for the Ki in test [1] and in test [2] were 0.4 nM and 1.1 nM, respectively. Besides, it took 19 nM to reach a half-maximal effect in test [3] (EC50).

For the compound `CCc1cccc(C2(CC#N)CN(c3cccn4nc(Nc5cnn(CC(=O)N6CCN(C)CC6)c5)nc34)C2)c1` [Example 71, 2-[3-(3-ethylphenyl)-1-[2-[[1-[2-(4-methylpiperazin-1-yl)-2-oxo-ethyl]pyrazol-4-yl]amino]-[1,2,4]triazolo[1,5-a]pyridin-8-yl]azetidin-3-yl]acetonitrile], the Ki in test [1] and in test [2] was 0.3 nM each time. The same compound displayed an EC50 in test [3] of 26 nM.

Regarding `CN1CCN(C(=O)Cn2cc(Nc3nc4c(N5CC(CC#N)(N6CCC(F)(F)CC6)C5)cccn4n3)cn2)CC1` [Example 12, 2-[3-(4,4-difluoro-1-piperidyl)-1-[2-[[1-[2-(4-methylpiperazin-1-yl)-2-oxo-ethyl]pyrazol-4-yl]amino]-[1,2,4]triazolo[1,5-a]pyridin-8-yl]azetidin-3-yl]acetonitrile], the figures for the Ki in test [1] and in test [2] were 0.9 nM and 2.4 nM, respectively. The same compound showed an EC50 in test [3] of 27 nM.

For `CN1CCN(C(=O)c2cccc(Nc3nc4c(N5CC(CC#N)(n6cc(C(F)(F)F)cn6)C5)cccn4n3)c2)CC1` [Example 110, formic acid;2-[1-[2-[3-(4-methylpiperazine-1-carbonyl)anilino]-[1,2,4]triazolo[1,5-a]pyridin-8-yl]-3-[4-(trifluoromethyl)pyrazol-1-yl]azetidin-3-yl]acetonitrile], the inhibitory constant (Ki) is 0.8 nM in test [1] and 0.9 nM in test [2]. Also, the EC50 in test [3] turned out to be 100 nM.

With `Cn1cc(Nc2nc3c(N4CC(CC#N)(n5cc(OC(F)F)cn5)C4)cccn3n2)cn1` [Example 145, 2-[3-[4-(difluoromethoxy)pyrazol-1-yl]-1-[2-[(l-methylpyrazol-4-yl)amino]-[1,2,4]triazolo[1,5-a]pyridin-8-yl]azetidin-3-yl]acetonitrile], the Ki in test [1] came to 0.2 nM; in test [2], 0.3 nM. In test [3], this compound displayed an EC50 of 6 nM.

Consider `Cc1ccccc1-c1cnn(C2(CC#N)CN(c3cccn4nc(Nc5cnn(CC(=O)N6CCC(N(C)C7COC7)CC6)c5)nc34)C2)c1` [Example 124], for which the results for the Ki in test [1] and in test [2] were 2 nM and 3.8 nM, respectively. In test [3], the EC50 was 85 nM.
